A word on the Papp A→B: it is how fast a substance crosses the layer from the apical side. What is called Papp B→A is how fast a substance crosses the layer from the basolateral side.

Here are results for two compounds from PMC10931676 (International Journal of Molecular Sciences, 2024).

Where two headings read alike, the source gives them in different places.

This series can be described thus: Permeability and efflux ratio in Caco-2 cells. It is filed as in vitro ADME. Conditions: human; for recovery at 120 min, 10 µM: Caco-2, Caco-2, 10 µM. The procedure:
Human colon carcinoma (Caco-2) cells, which were obtained from Military Medical Research Institute, were maintained in Dulbecco’s modified Eagle’s medium. Caco-2 cells were seeded onto […] (PET) in 96-well Falcon insert systems at 2 × 10^5 cells/cm^2 for 21–28 days for confluent cell monolayer formation. […] Test compounds were diluted with the transport buffer (HBSS without BSA) from a 10 mM stock solution to a concentration of 10 µM and applied to the apical or basolateral side of the cell monolayer. Permeation of the test compounds in the direction from A to B or from B to A was determined in duplicate over a 120-min incubation at 37 °C and 5% CO2 with a relative humidity of 95%. In addition, the efflux ratio of each compound was also determined. Test and reference compounds were quantified by LC-MS/MS analysis based on the peak area ratio of analyte/IS. The apparent permeability coefficient Papp (cm/s) was calculated using the following equation:Papp = (dCr/dt) × Vr/(A × C0) where dCr/dt is the cumulative concentration of the compound in the receiver chamber as a function of time (S); Vr is the solution volume in the receiver chamber (0.1 mL on the apical side, 0.25 mL on the basolateral side); A is the surface area for the transport, i.e., 0.0804 cm^2 for the area of the monolayer; C0 is the initial concentration in the donor chamber. […] Cd and Cr are the final concentrations of transport compound in donor and receiver chambers, respectively. Cc is the compound concentration in the cell lysate solution. Vc is the volume of insert well (0.1 mL in this assay).

Where [1] appears, read: Caco-2, 10 µM, 120-min incubation, 37 °C.

Consider `C[C@H]1O[C@@H](O[C@H]2[C@@H](O)C[C@H](O[C@H]3[C@@H](O)C[C@H](O[C@H]4CC[C@@]5(C)[C@H](CC[C@@H]6[C@@H]5C[C@@H](O)[C@]5(C)[C@@H](C7=CC(=O)OC7)CC[C@]65O)C4)O[C@@H]3C)O[C@@H]2C)C[C@H](O)[C@@H]1O` [Digoxin], for which the recovery at 120 min, 10 µM (read-out: Mean Recovery % B to A) stood at 95.3%. Under setting [1], the apical-to-basolateral permeability (Papp A→B) at 120 min, 10 µM is 0.65 ×10⁻⁶ cm/s and the Papp B→A at 120 min, 10 µM was 14.6 ×10⁻⁶ cm/s.
Regarding `CC(C)NCC(O)COc1cccc2ccccc12` (centres unmarked) [Propranolol], the recovery at 120 min, 10 µM (read-out: Mean Recovery % A to B) is 81%. The Papp A→B at 120 min, 10 µM under setting [1] turned out to be 29.4 ×10⁻⁶ cm/s.
